Laboratory results: PubChem BioAssay AID284 (DTP/NCI, 2004)
Values joined by “and” are separate entries in the source; they are usually repeats but may differ in a detail not shown here. Equal values may be shown once. Toxic doses and inconclusive results are not listed. Rule for the calls: active = survival T/C of 150% or more; inactive = T/C below 125% in these data.

Tested on: BDF1 mice, L1210/MTX-resistant leukemia ip, survival T/C
Assay: NCI In Vivo Anticancer Drug Screen. Data for tumor model L1210 Leukemia resistant to Methotrexate; NSC 740 (intraperitoneal) in B6D2F1 (BDF1) mice
Conditions: endpoint: mean survival time, higher = longer survival
Protocol: The antitumor activity of compounds was measured in mice bearing transplantable tumors. Survival or tumor size were measured and the results are expressed as the measurement made in the treated group (T) divided by the measurement made in the vehicle treated control group (C). The tumor model used in this assay is L1210 Leukemia resistant to Methotrexate; NSC 740 (intraperitoneal) in B6D2F1 (BDF1) mice

Measured: T/C

O=C(Nc1ccc(C2=NCCCN2)cc1)c1ccc(C(=O)Nc2ccc(C3=NCCCN3)cc2)cc1
124 % of control and 242 % of control: dose: 4.0 mg/kg/injection, schedule: Q01DX010 (ip), vehicle: other
active: dose: 2.0 mg/kg/injection, schedule: Q01DX010 (ip), vehicle: other 222 % of control and 252 % of control | dose: 5.0 mg/kg/injection, schedule: Q01DX Z (ip), vehicle: carboxymethylcellulose (CMC) 208 % of control
inactive: dose: 7.5 mg/kg/injection, schedule: Q01DX Z (ip), vehicle: carboxymethylcellulose (CMC) 122 % of control | dose: 8.0 mg/kg/injection, schedule: Q01DX010 (ip), vehicle: other 114 % of control and 93 % of control | dose: 10.0 mg/kg/injection, schedule: Q01DX Z (ip), vehicle: carboxymethylcellulose (CMC) 114 % of control | dose: 15.0 mg/kg/injection, schedule: Q01DX Z (ip), vehicle: carboxymethylcellulose (CMC) 100 % of control | dose: 16.0 mg/kg/injection, schedule: Q01DX010 (ip), vehicle: other 93 % of control | dose: 20.0 mg/kg/injection, schedule: Q01DX Z (ip), vehicle: carboxymethylcellulose (CMC) 98 % of control | dose: 25.0 mg/kg/injection, schedule: Q01DX Z (ip), vehicle: carboxymethylcellulose (CMC) 96 % of control

Nc1ccc(C(=O)NO)cc1
inactive: dose: 112.0 mg/kg/injection, schedule: Q01DX015 (ip), vehicle: carboxymethylcellulose (CMC) 109 % of control | dose: 225.0 mg/kg/injection, schedule: Q01DX015 (ip), vehicle: carboxymethylcellulose (CMC) 117 % of control | dose: 450.0 mg/kg/injection, schedule: Q01DX015 (ip), vehicle: carboxymethylcellulose (CMC) 100 % of control
